Measured values published in the supplement of paper PMC10883282.

Key:
Assay in all cases: standardised AUC of viability dose-response curve (72 h) (fraction (0-1)); higher = less growth inhibition (more resistant)
RD-ES = test system: RD-ES
How it was run: (§1)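 After 72 h with 2.5 µl of compound (compound-plate series 10 mM to 0.0002 mM), triplicate wells of sarcoma cell lines in 384-well plates were read with ATPLite, with viability scaled 1 (full) to 0 (none) and fitted with a four-parameter log-logistic model. The values give the standardised area under the dose-response curve in log-dose space from a modified drexplorer computeAUC. A value of 1 means no response and 0 means full response.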

SW982 = test system: SW982
How it was run: as §1

VA-ES-BJ = test system: VA-ES-BJ
How it was run: as §1

SK-LMS-1 = test system: SK-LMS-1
How it was run: as §1

SW684 = test system: SW684
How it was run: as §1

HS729 = test system: HS729
How it was run: as §1

RD = test system: RD
How it was run: as §1

SYO-1 = test system: SYO-1
How it was run: as §1

HT1080 = test system: HT1080
How it was run: as §1

SK-ES-1 = test system: SK-ES-1
How it was run: as §1

A204 = test system: A204
How it was run: as §1

KHOS-NP = test system: KHOS-NP
How it was run: as §1

KHOS-240S = test system: KHOS-240S
How it was run: as §1

MES-SA = test system: MES-SA
How it was run: as §1

SW1353 = test system: SW1353
How it was run: as §1

G401 = test system: G401
How it was run: as §1

SW872 = test system: SW872
How it was run: as §1

## CCCS(=O)(=O)Nc1ccc(F)c(C(=O)c2c[nH]c3ncc(-c4ccc(Cl)cc4)cc23)c1F [VEMURAFENIB]
RD-ES
  standardised AUC: 0.989
SW982
  standardised AUC: 0.949
VA-ES-BJ
  standardised AUC: 0.983
SK-LMS-1
  standardised AUC: 0.93
SW684
  standardised AUC: 0.97
HS729
  standardised AUC: 0.978
RD
  standardised AUC: 0.978
SYO-1
  standardised AUC: 0.978
HT1080
  standardised AUC: 0.983
SK-ES-1
  standardised AUC: 0.959
A204
  standardised AUC: 0.977
KHOS-NP
  standardised AUC: 0.983
KHOS-240S
  standardised AUC: 0.979
MES-SA
  standardised AUC: 0.956
SW1353
  standardised AUC: 0.946
G401
  standardised AUC: 0.992
SW872
  standardised AUC: 0.802

## C=CC(=O)Nc1cccc(Oc2nc(Nc3ccc(N4CCN(C)CC4)cc3)nc3ccsc23)c1 [OLMUTINIB]
RD-ES
  standardised AUC: 0.982
SW982
  standardised AUC: 0.907
VA-ES-BJ
  standardised AUC: 0.939
SK-LMS-1
  standardised AUC: 0.927
SW684
  standardised AUC: 0.899
HS729
  standardised AUC: 0.931
RD
  standardised AUC: 0.951
SYO-1
  standardised AUC: 0.923
HT1080
  standardised AUC: 0.951
SK-ES-1
  standardised AUC: 0.936
A204
  standardised AUC: 0.98
KHOS-NP
  standardised AUC: 0.993
KHOS-240S
  standardised AUC: 0.954
MES-SA
  standardised AUC: 0.945
SW1353
  standardised AUC: 0.918
G401
  standardised AUC: 0.964
SW872
  standardised AUC: 0.964

## Cc1ccc(F)c(NC(=O)Nc2ccc(-c3cccc4[nH]nc(N)c34)cc2)c1 [LINIFANIB]
RD-ES
  standardised AUC: 0.994
SW982
  standardised AUC: 1
VA-ES-BJ
  standardised AUC: 1
SK-LMS-1
  standardised AUC: 1
SW684
  standardised AUC: 0.996
HS729
  standardised AUC: 0.884
RD
  standardised AUC: 1
SYO-1
  standardised AUC: 0.879
HT1080
  standardised AUC: 0.994
SK-ES-1
  standardised AUC: 0.964
A204
  standardised AUC: 0.74
KHOS-NP
  standardised AUC: 0.955
KHOS-240S
  standardised AUC: 0.983
MES-SA
  standardised AUC: 0.973
SW1353
  standardised AUC: 0.993
G401
  standardised AUC: 0.948
SW872
  standardised AUC: 0.972

## CO[C@H]1C[C@@H]2CC[C@@H](C)[C@@](O)(O2)C(=O)C(=O)N2CCCC[C@H]2C(=O)O[C@H]([C@H](C)C[C@@H]2CC[C@@H](OP(C)(C)=O)[C@H](OC)C2)CC(=O)[C@H](C)/C=C(\C)[C@@H](O)[C@@H](OC)C(=O)[C@H](C)C[C@H](C)/C=C/C=C/C=C/1C [RIDAFOROLIMUS]
RD-ES
  standardised AUC: 0.764
SW982
  standardised AUC: 0.729
VA-ES-BJ
  standardised AUC: 0.587
SK-LMS-1
  standardised AUC: 0.645
SW684
  standardised AUC: 0.798
HS729
  standardised AUC: 0.937
RD
  standardised AUC: 0.748
SYO-1
  standardised AUC: 0.874
HT1080
  standardised AUC: 0.925
SK-ES-1
  standardised AUC: 0.682
A204
  standardised AUC: 0.643
KHOS-NP
  standardised AUC: 0.97
KHOS-240S
  standardised AUC: 0.867
MES-SA
  standardised AUC: 0.542
SW1353
  standardised AUC: 0.796
G401
  standardised AUC: 0.832
SW872
  standardised AUC: 0.686

## Cc1nc(NC(=O)N2CCC[C@H]2C(N)=O)sc1-c1ccnc(C(C)(C)C(F)(F)F)c1 [ALPELISIB]
RD-ES
  standardised AUC: 0.793
SW982
  standardised AUC: 0.935
VA-ES-BJ
  standardised AUC: 0.852
SK-LMS-1
  standardised AUC: 0.867
SW684
  standardised AUC: 0.887
HS729
  standardised AUC: 0.78
RD
  standardised AUC: 0.86
SYO-1
  standardised AUC: 0.814
HT1080
  standardised AUC: 0.963
SK-ES-1
  standardised AUC: 0.799
A204
  standardised AUC: 0.848
KHOS-NP
  standardised AUC: 0.964
KHOS-240S
  standardised AUC: 0.895
MES-SA
  standardised AUC: 0.818
SW1353
  standardised AUC: 0.909
G401
  standardised AUC: 0.845
SW872
  standardised AUC: 0.819

## CC1(C)CNc2cc(NC(=O)c3cccnc3NCc3ccncc3)ccc21 [MOTESANIB]
RD-ES
  standardised AUC: 0.994
SW982
  standardised AUC: 0.997
VA-ES-BJ
  standardised AUC: 1
SK-LMS-1
  standardised AUC: 0.983
SW684
  standardised AUC: 0.95
HS729
  standardised AUC: 0.944
RD
  standardised AUC: 1
SYO-1
  standardised AUC: 0.866
HT1080
  standardised AUC: 0.981
SK-ES-1
  standardised AUC: 0.991
A204
  standardised AUC: 0.756
KHOS-NP
  standardised AUC: 0.975
KHOS-240S
  standardised AUC: 0.97
MES-SA
  standardised AUC: 0.995
SW1353
  standardised AUC: 0.975
G401
  standardised AUC: 0.957
SW872
  standardised AUC: 0.978

## N#CC[C@H](C1CCCC1)n1cc(-c2ncnc3[nH]ccc23)cn1 [RUXOLITINIB]
RD-ES
  standardised AUC: 0.989
SW982
  standardised AUC: 0.936
VA-ES-BJ
  standardised AUC: 0.973
SK-LMS-1
  standardised AUC: 0.987
SW684
  standardised AUC: 0.948
HS729
  standardised AUC: 0.951
RD
  standardised AUC: 0.992
SYO-1
  standardised AUC: 0.978
HT1080
  standardised AUC: 0.994
SK-ES-1
  standardised AUC: 0.981
A204
  standardised AUC: 0.951
KHOS-NP
  standardised AUC: 0.977
KHOS-240S
  standardised AUC: 0.944
MES-SA
  standardised AUC: 0.944
SW1353
  standardised AUC: 0.982
G401
  standardised AUC: 0.97
SW872
  standardised AUC: 0.945

## Cc1cc(Nc2ncnc3ccc(NC4=NC(C)(C)CO4)cc23)ccc1Oc1ccn2ncnc2c1 [TUCATINIB]
RD-ES
  standardised AUC: 0.978
SW982
  standardised AUC: 0.984
VA-ES-BJ
  standardised AUC: 0.951
SK-LMS-1
  standardised AUC: 0.985
SW684
  standardised AUC: 0.976
HS729
  standardised AUC: 0.928
RD
  standardised AUC: 1
SYO-1
  standardised AUC: 0.97
HT1080
  standardised AUC: 0.988
SK-ES-1
  standardised AUC: 0.974
A204
  standardised AUC: 0.966
KHOS-NP
  standardised AUC: 0.989
KHOS-240S
  standardised AUC: 0.983
MES-SA
  standardised AUC: 0.946
SW1353
  standardised AUC: 0.915
G401
  standardised AUC: 0.979
SW872
  standardised AUC: 0.981

## C[C@@H]1CCN(C(=O)CC#N)C[C@@H]1N(C)c1ncnc2[nH]ccc12 [TOFACITINIB]
RD-ES
  standardised AUC: 1
SW982
  standardised AUC: 0.993
VA-ES-BJ
  standardised AUC: 0.958
SK-LMS-1
  standardised AUC: 0.978
SW684
  standardised AUC: 0.967
HS729
  standardised AUC: 0.876
RD
  standardised AUC: 1
SYO-1
  standardised AUC: 0.925
HT1080
  standardised AUC: 0.982
SK-ES-1
  standardised AUC: 0.989
A204
  standardised AUC: 0.972
KHOS-NP
  standardised AUC: 0.982
KHOS-240S
  standardised AUC: 0.976
MES-SA
  standardised AUC: 0.989
SW1353
  standardised AUC: 0.942
G401
  standardised AUC: 0.994
SW872
  standardised AUC: 0.932

## Cn1cnc2c(F)c(Nc3ccc(Br)cc3F)c(C(=O)NOCCO)cc21 [BINIMETINIB]
RD-ES
  standardised AUC: 0.978
SW982
  standardised AUC: 0.89
VA-ES-BJ
  standardised AUC: 0.895
SK-LMS-1
  standardised AUC: 0.727
SW684
  standardised AUC: 0.917
HS729
  standardised AUC: 0.887
RD
  standardised AUC: 0.736
SYO-1
  standardised AUC: 0.922
HT1080
  standardised AUC: 0.756
SK-ES-1
  standardised AUC: 0.933
A204
  standardised AUC: 0.936
KHOS-NP
  standardised AUC: 0.773
KHOS-240S
  standardised AUC: 0.89
MES-SA
  standardised AUC: 0.905
SW1353
  standardised AUC: 0.838
G401
  standardised AUC: 0.869
SW872
  standardised AUC: 0.741

## C=CC(=O)N1CCC[C@@H](n2nc(-c3ccc(Oc4ccccc4)cc3)c3c(N)ncnc32)C1 [IBRUTINIB]
RD-ES
  standardised AUC: 0.994
SW982
  standardised AUC: 0.992
VA-ES-BJ
  standardised AUC: 0.995
SK-LMS-1
  standardised AUC: 0.978
SW684
  standardised AUC: 0.997
HS729
  standardised AUC: 0.941
RD
  standardised AUC: 0.997
SYO-1
  standardised AUC: 0.892
HT1080
  standardised AUC: 1
SK-ES-1
  standardised AUC: 0.991
A204
  standardised AUC: 0.967
KHOS-NP
  standardised AUC: 0.966
KHOS-240S
  standardised AUC: 0.954
MES-SA
  standardised AUC: 0.948
SW1353
  standardised AUC: 0.85
G401
  standardised AUC: 0.973
SW872
  standardised AUC: 0.934
